Reference: the kinase profiling compilation of Christmann-Franck et al. (2016)

How the values were obtained:
Assay in all cases: KINOMEscan competition binding
[1] = molecular target: IRAK3 (human) (UniProt Q9Y616); settings: compound 10.0 µM
[2] = molecular target: RIPK4 (human) (UniProt P57078); settings: compound 10.0 µM
[3] = molecular target: ERBB4 (human) (UniProt Q15303); settings: compound 10.0 µM
[4] = molecular target: TLK2 (human) (UniProt Q86UE8); settings: compound 10.0 µM
[5] = molecular target: HIPK2 (human) (UniProt Q9H2X6); settings: compound 10.0 µM
[6] = molecular target: CDK11B (human) (UniProt P21127); settings: compound 10.0 µM
[7] = molecular target: PRKD1 (human) (UniProt Q15139); settings: compound 10.0 µM
PRKD1 (human), sequence (Q15139 whole entry, looked up): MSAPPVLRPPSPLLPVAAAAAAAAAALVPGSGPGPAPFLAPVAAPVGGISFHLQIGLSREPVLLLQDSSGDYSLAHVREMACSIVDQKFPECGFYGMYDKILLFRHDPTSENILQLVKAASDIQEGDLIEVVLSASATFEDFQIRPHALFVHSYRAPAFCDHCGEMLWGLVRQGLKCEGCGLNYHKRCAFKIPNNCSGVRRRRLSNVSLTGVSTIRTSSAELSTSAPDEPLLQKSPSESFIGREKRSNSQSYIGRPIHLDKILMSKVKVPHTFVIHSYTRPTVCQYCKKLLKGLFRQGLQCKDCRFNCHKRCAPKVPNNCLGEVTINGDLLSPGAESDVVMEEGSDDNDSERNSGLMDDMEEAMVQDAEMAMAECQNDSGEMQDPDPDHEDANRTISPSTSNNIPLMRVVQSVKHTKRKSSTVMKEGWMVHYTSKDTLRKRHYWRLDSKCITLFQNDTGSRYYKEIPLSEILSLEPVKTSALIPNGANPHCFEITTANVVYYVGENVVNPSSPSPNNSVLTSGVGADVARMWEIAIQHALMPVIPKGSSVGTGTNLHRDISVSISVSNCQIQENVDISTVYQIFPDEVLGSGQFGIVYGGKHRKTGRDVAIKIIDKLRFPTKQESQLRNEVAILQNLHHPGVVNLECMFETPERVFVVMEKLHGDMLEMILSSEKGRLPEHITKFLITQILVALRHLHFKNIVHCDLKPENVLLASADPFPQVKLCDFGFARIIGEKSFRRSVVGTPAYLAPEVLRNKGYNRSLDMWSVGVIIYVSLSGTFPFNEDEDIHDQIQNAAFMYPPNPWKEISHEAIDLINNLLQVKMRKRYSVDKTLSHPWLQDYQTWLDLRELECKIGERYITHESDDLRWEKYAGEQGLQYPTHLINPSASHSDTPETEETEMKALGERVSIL

[8] = molecular target: TIE1 (human) (UniProt P35590); settings: compound 10.0 µM
[9] = molecular target: MAP2K6 (human) (UniProt P52564); settings: compound 10.0 µM
[10] = molecular target: FGR (human) (UniProt P09769); settings: compound 10.0 µM
[11] = molecular target: RPS6KA6 KD2 (human) (UniProt Q9UK32)
RPS6KA6 KD2 (human), sequence (Q9UK32 whole entry, looked up): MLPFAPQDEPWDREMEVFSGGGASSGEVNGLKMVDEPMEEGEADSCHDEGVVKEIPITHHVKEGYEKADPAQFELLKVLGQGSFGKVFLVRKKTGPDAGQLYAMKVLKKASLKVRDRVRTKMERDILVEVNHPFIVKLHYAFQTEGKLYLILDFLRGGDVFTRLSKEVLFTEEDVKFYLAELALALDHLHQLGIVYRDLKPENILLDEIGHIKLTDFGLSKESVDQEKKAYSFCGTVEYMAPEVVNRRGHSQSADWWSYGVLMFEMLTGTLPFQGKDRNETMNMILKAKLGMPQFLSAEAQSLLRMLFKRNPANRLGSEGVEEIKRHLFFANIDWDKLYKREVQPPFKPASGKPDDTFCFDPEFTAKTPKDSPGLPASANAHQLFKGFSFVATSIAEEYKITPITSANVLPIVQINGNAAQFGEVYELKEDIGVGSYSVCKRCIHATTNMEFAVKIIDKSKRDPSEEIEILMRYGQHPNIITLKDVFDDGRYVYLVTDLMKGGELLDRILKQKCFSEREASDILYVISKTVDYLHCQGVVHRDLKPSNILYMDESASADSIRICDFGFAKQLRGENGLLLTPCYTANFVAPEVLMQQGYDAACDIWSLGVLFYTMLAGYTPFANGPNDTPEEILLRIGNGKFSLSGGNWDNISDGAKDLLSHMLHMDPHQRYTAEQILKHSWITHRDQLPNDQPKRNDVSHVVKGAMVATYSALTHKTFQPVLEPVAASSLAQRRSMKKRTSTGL

[12] = molecular target: CAMK2G (human) (UniProt Q13555); settings: compound 10.0 µM
[13] = molecular target: RPS6KA4 KD1 (human) (UniProt O75676); settings: compound 10.0 µM
[14] = molecular target: RET (human) (UniProt P07949); settings: compound 10.0 µM
[15] = system: RET (human), P07949 [V804M]; settings: compound 10.0 µM
[16] = molecular target: AXL (human) (UniProt P30530); settings: compound 10.0 µM
[17] = molecular target: CaMK1 (human) (UniProt Q14012); settings: compound 10.0 µM
CaMK1 (human), sequence (Q14012 whole entry, looked up): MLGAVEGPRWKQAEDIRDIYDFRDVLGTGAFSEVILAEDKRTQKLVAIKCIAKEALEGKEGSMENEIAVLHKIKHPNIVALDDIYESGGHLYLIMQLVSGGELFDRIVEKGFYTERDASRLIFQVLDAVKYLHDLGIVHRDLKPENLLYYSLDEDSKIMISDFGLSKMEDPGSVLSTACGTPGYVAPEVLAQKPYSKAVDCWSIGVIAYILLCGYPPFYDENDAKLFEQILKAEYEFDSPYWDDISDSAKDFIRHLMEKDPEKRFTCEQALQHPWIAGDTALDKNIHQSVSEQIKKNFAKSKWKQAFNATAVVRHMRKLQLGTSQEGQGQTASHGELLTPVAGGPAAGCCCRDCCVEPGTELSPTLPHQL

[18] = molecular target: EPHA6 (human) (UniProt Q9UF33); settings: compound 10.0 µM
[19] = molecular target: RPS6KA1 KD1 (human) (UniProt Q15418); settings: compound 10.0 µM
[20] = molecular target: MAP4K5 (human) (UniProt Q9Y4K4); settings: compound 10.0 µM
[21] = molecular target: CDC42BPA (human) (UniProt Q5VT25); settings: compound 10.0 µM
[22] = system: KIT (human), P10721 [A829P]; settings: compound 10.0 µM
[23] = molecular target: CSNK1G3 (human) (UniProt Q9Y6M4); settings: compound 10.0 µM
[24] = molecular target: ROS1 (human) (UniProt P08922); settings: compound 10.0 µM
[25] = molecular target: PIM2 (human) (UniProt Q9P1W9); settings: compound 10.0 µM
[26] = molecular target: PRKCH (human) (UniProt P24723); settings: compound 10.0 µM
[27] = molecular target: STK24 (human) (UniProt Q9Y6E0); settings: compound 10.0 µM
[28] = molecular target: ACVR2B (human) (UniProt Q13705); settings: compound 10.0 µM
[29] = molecular target: SRC (human) (UniProt P12931); settings: compound 10.0 µM
[30] = molecular target: ACVRL1 (human) (UniProt P37023); settings: compound 10.0 µM
[31] = system: FLT3 (human), P36888 [N841I]; settings: compound 10.0 µM
[32] = molecular target: BMP2K (human) (UniProt Q9NSY1); settings: compound 10.0 µM
[33] = molecular target: BTK (human) (UniProt Q06187); settings: compound 10.0 µM
[34] = molecular target: FER (human) (UniProt P16591); settings: compound 10.0 µM
[35] = molecular target: EPHB3 (human) (UniProt P54753); settings: compound 10.0 µM
[36] = system: ABL1 (human), P00519 [E255K]; settings: compound 10.0 µM
[37] = molecular target: INSRR (human) (UniProt P14616); settings: compound 10.0 µM
[38] = molecular target: CDK8 (human) (UniProt P49336); settings: compound 10.0 µM
[39] = molecular target: ALK (human) (UniProt Q9UM73); settings: compound 10.0 µM
ALK (human), sequence (Q9UM73 whole entry, looked up): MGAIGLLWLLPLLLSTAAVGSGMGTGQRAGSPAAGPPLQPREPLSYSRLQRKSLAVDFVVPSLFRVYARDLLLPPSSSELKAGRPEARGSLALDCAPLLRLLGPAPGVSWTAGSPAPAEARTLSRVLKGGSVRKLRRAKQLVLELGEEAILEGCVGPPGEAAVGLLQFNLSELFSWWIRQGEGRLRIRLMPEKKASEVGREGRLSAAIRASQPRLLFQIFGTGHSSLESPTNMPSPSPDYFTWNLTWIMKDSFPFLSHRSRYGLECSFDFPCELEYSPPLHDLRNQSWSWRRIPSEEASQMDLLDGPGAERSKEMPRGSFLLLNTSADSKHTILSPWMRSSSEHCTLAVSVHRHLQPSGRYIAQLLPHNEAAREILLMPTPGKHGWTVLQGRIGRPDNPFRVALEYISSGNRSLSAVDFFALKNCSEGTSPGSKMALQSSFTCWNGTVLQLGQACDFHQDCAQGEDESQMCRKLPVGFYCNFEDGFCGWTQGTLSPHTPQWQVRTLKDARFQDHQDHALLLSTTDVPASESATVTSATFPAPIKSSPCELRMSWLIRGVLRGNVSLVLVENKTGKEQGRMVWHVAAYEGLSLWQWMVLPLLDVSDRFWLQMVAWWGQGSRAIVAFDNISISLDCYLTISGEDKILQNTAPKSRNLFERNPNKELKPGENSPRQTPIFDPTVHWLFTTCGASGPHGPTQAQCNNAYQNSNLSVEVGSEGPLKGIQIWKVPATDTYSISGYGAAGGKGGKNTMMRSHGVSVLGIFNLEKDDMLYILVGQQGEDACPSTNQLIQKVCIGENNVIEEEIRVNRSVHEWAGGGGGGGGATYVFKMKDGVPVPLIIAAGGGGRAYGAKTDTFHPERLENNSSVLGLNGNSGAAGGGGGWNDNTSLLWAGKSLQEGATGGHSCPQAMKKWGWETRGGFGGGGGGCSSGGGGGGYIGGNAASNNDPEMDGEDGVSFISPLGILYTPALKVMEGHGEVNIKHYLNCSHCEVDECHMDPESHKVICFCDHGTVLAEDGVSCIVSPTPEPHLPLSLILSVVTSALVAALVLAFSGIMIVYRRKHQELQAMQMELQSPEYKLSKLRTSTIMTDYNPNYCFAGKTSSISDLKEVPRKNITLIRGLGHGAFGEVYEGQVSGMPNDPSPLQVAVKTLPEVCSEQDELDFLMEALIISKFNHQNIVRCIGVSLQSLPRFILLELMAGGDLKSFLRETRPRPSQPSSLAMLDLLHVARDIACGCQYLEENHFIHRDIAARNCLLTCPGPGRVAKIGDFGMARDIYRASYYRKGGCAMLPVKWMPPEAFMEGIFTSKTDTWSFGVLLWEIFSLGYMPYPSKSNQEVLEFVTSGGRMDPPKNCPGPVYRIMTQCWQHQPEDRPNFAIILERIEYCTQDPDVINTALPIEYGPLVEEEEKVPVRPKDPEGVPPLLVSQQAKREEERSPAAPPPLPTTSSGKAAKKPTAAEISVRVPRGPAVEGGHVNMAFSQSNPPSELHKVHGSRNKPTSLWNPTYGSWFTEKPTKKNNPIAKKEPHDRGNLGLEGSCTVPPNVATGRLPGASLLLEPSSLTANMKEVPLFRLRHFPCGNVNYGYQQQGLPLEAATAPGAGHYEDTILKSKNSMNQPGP

[40] = molecular target: CDK5 (human) (UniProt Q00535); settings: compound 10.0 µM
[41] = molecular target: MAP3K3 (human) (UniProt Q99759); settings: compound 10.0 µM
MAP3K3 (human), sequence (Q99759 whole entry, looked up): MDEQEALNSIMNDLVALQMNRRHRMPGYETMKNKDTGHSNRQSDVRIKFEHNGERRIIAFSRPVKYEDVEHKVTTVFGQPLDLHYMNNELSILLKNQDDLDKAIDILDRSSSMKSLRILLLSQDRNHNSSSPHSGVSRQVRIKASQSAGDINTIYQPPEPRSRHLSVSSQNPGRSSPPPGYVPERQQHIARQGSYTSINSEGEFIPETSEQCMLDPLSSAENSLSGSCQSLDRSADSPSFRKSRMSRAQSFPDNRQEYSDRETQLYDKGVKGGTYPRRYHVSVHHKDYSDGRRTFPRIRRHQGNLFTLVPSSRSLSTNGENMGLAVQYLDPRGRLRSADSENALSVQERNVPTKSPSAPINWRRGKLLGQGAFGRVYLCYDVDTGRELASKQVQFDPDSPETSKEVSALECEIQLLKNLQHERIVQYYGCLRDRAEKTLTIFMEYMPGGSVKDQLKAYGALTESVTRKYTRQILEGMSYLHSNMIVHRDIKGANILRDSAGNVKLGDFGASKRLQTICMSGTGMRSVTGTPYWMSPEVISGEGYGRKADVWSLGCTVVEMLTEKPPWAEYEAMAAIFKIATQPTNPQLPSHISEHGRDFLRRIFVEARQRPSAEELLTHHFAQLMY

IRAK3 (human), sequence (Q9Y616 whole entry, looked up): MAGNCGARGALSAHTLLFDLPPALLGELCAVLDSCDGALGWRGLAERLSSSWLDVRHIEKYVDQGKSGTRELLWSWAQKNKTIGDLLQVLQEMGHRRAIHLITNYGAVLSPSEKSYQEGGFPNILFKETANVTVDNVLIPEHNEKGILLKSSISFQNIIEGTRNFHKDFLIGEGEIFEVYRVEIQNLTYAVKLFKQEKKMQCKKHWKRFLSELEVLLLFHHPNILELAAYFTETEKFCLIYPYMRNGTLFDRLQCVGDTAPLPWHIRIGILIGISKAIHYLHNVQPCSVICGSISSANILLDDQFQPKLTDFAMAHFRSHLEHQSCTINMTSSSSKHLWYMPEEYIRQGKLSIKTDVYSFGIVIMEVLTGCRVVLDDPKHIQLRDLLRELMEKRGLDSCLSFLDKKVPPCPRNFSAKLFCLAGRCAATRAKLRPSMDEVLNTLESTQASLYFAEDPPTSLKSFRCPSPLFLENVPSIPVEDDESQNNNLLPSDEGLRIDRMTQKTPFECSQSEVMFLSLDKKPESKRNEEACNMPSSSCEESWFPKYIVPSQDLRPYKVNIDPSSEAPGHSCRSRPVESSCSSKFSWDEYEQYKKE

## COc1cc(C(=O)N2CCC(N3CCN(C)CC3)CC2)ccc1Nc1ncc2c(n1)N(C)c1ccccc1C(=O)N2C
[1]
  kinase still bound, per cent of control: 100%
[2]
  kinase still bound, per cent of control: 74%
[3]
  kinase still bound, per cent of control: 100%
[4]
  kinase still bound, per cent of control: 99%
[5]
  kinase still bound, per cent of control: 88%
[6]
  residual activity: 84%
[7]
  kinase still bound, per cent of control: 28%
[8]
  kinase still bound, per cent of control: 100%
[9]
  kinase still bound, per cent of control: 83%
[10]
  kinase still bound, per cent of control: 84%
[11]
  Kd: 620 nM
[11]; compound 10.0 µM
  kinase still bound, per cent of control: 2.2%
[12]
  kinase still bound, per cent of control: 47%
[13]
  kinase still bound, per cent of control: 100%
[14]
  kinase still bound, per cent of control: 100%
[15]
  kinase still bound, per cent of control: 80%
[16]
  kinase still bound, per cent of control: 100%
[17]
  kinase still bound, per cent of control: 55%
[18]
  kinase still bound, per cent of control: 89%
[19]
  kinase still bound, per cent of control: 73%
[20]
  kinase still bound, per cent of control: 100%
[21]
  kinase still bound, per cent of control: 100%
[22]
  kinase still bound, per cent of control: 100%
[23]
  kinase still bound, per cent of control: 93%
[24]
  kinase still bound, per cent of control: 12%
[25]
  kinase still bound, per cent of control: 100%
[26]
  kinase still bound, per cent of control: 100%
[27]
  kinase still bound, per cent of control: 87%
[28]
  kinase still bound, per cent of control: 100%
[29]
  kinase still bound, per cent of control: 100%
[30]
  kinase still bound, per cent of control: 100%
[31]
  kinase still bound, per cent of control: 73%
[32]
  kinase still bound, per cent of control: 100%
[33]
  kinase still bound, per cent of control: 100%
[34]
  kinase still bound, per cent of control: 51%
[35]
  kinase still bound, per cent of control: 100%
[36]
  kinase still bound, per cent of control: 80%
[37]
  kinase still bound, per cent of control: 97%
[38]
  residual activity: 100%
[39]
  kinase still bound, per cent of control: 13%
[40]
  residual activity: 81%
[41]
  kinase still bound, per cent of control: 97%
